Results on 2 compounds are retold here after patent US6919188B1, “Pseudomycin production by Pseudomonas syringae” (Eli Lilly and Company, priority 1999, dated 2005).

Entries after “also recorded” stand apart in the source; their conditions may differ. Starred links: 1 amine or outer side, 2 acyl side, 3 side chain; linkers in the order of their positions; H or OH if unused. Positions of bridges follow the written chain, without caps; N, C: chain ends. Non-standard residues stand in square brackets, D forms with d. Residues, ends and D or L forms follow the SMILES beside them. ξ: configuration not given here. *: point of attachment. Tetradecanoyl(3R-OH) = CCCCCCCCCCC[C@@H](O)CC(=O)*; Asp(3S-OH) = N[C@H](C(=O)O)[C@H](O)C(=O)O; Thr(4-Cl) = N[C@H](C(=O)O)[C@H](O)CCl; ξAsp(3ξ-OH) = NC(C(=O)O)C(O)C(=O)O; X3 = O=C(C(N[*:1])C(O)CCl)[*:2]; X1 = CCCCCCCCCCC(O)C(O)CC(=O)*; aThr = C[C@H](O)[C@H](N)C(=O)O; X2 = C/C=C(/N[*:1])C(=O)[*:2]; dDab = NCC[C@@H](N)C(=O)O; Dab = NCC[CH](N)C(=O)O; Dhb = C/C=C(\N)C(=O)O

In series [1] the test system is fungi, including important fungal pathogens in both humans and plants. The following applies: isolated pseudomycins; spectrum of fungi; cited from earlier work.
Series [2] can be described thus: Toxicity of pseudomycins (general statement). The following applies: no species or dose given.
Series [3] has as its system fungi, including important fungal pathogens in both humans and plants. The experiment in a line: Antifungal activity of isolated pseudomycins (general statements, literature). The class given is cell-based. The following applies: comparison with pseudomycins A, C, certain fungi.

As to `C/C=C1/NC(=O)C(C(C)O)NC(=O)C(CCN)NC(=O)C(CCCCN)NC(=O)C(CC(=O)O)NC(=O)C(CCN)NC(=O)C(NC(=O)CC(O)C(O)CCCCCCCCCC)COC(=O)C(C(O)CCl)NC(=O)C(C(O)C(=O)O)NC1=O` (centres unmarked) [Pseudomycin A] (X1-S[Dab]DK[Dab]T[X2][ξAsp(3ξ-OH)][X3]; ester 1-C; configuration not given here), the antifungal activity entry in series [1] was “activity against a wide variety of fungi; also recorded: wide spectrum antifungal activity”. In series [2], the toxicity entry is reported as “generally acceptable toxicity”.

Take `C/C=C1\NC(=O)[C@H]([C@H](C)O)NC(=O)[C@H](CCN)NC(=O)[C@H](CCCCN)NC(=O)[C@H](CC(=O)O)NC(=O)[C@@H](CCN)NC(=O)[C@@H](NC(=O)C[C@H](O)CCCCCCCCCCC)COC(=O)[C@H]([C@H](O)CCl)NC(=O)[C@H]([C@H](O)C(=O)O)NC1=O` [Pseudomycin B] ({Tetradecanoyl(3R-OH)}-S[dDab]DK[Dab][aThr][Dhb][Asp(3S-OH)][Thr(4-Cl)]; ester 1-C): the “potency against fungi compared to the other preferred pseudomycins” value in series [3] is given as “greater potency against certain fungi”. In addition, the antifungal activity result in series [1] was “activity against a wide variety of fungi; also recorded: wide spectrum antifungal activity”. Besides, the toxicity result in series [2] was “generally acceptable toxicity; also recorded: lower level of toxicity”.
